Where two headings read alike, the source gives them in different places.
Tests used:
[1] = Pharmacokinetic assessment of X842 in rats (IV, single oral, repeated oral); type: in vivo, Sprague-Dawley rats; details: Sprague-Dawley, rat, plasma; for AUC(0-t): read-out: AUC(0–24h); for half-life: read-out: t1/2 (converted)
Description: Male and female Sprague-Dawley rats weighing approximately 150 g were housed individually with a 12-h light/dark cycle. Food and water were provided ad libitum, except during overnight fasting (10–16 h) prior to oral drug administration, as described previously ([Kotegawa et al., 1998]; [Kotegawa et al., 2002]). To investigate the absorption kinetics of X842 (prodrug) and linaprazan (metabolite, parent drug) in rats after oral and intravenous administration of X842, X842 were dissolved in 5% Solutol HS15/45% ethanol/10% PEG400/40% saline, and methane sulfonic acid was used to adjust to pH 3, yielding solutions with concentrations of 0.6 mg/mL, 2.4 mg/mL, and 9.6 mg/mL for oral administration. For intravenous (IV) injection, a drug solution (0.6 mg/mL) was prepared and filtered through a 0.22-μm filter. Blood samples were collected via the jugular vein of conscious rats (without intubation, narcotics, or antibiotics) prior to dosing and at 0.083, 0.25, 0.5, 1, 2, 4, 6, 8, and 24 h after dosing. Blood samples were placed into tubes containing sodium heparin and centrifuged at 3,500 rpm for 10 min at 4 °C. Following centrifugation, the plasma was transferred to clean tubes and stored at −80 °C until further analysis. All animals were euthanized by carbon dioxide (CO2) inhalation after the final blood sample collection.
(§1) Pharmacokinetic assessments were conducted by Shanghai Medicilon Inc. Using C18 solid-phase extraction (Shimadzu UFLC-20A, ACE 3, C18, 3.0 µm, 150 × 4.6 mm; Shimadzu, Japan) with the following conditions: mobile phase A: 1 M ammonium acetate in water, mobile phase B: 100% acetonitrile; gradient 0–5 min: 100% A, 5–30 min: 85% A, 35–63 min: 75% A, 63–65 min: 55% A, 65–70 min: 0% A, 72–87 min: 100% A; flow rate 0.7 mL/min; column temperature 30 °C ([Weidof and Covey, 1992]). […] Bioavailability was calculated as F (%) = (Doseiv × AUCpo(0–24h)) ÷ (Dosepo × AUCiv (0–24h)) × 100%, where “po” represents oral administration and “iv” represents intravenous administration.

[2] = Pharmacokinetic assessment of X842 in dogs (IV, single oral, repeated oral); type: in vivo; details: beagle, dog, plasma, analyte as labelled; for half-life at 1 day: read-out: t1/2 Day 1 (converted); for half-life at 7 day: read-out: t1/2 Day 7 (converted); for half-life: read-out: t1/2 (converted)
Description: as §1
Male and female Beagle dogs weighing around 9 kg were arbitrarily selected for testing. Food and water were provided ad libitum, except during overnight fasting (15–16 h) prior to oral drug administration ([Adebowale et al., 2002]). X842 were dissolved in the PEG400/ethanol/Solutol/water mixture (40:10:5:45% v/v) and methane sulfonic acid was used to adjust to pH 3, yielding solutions with concentrations of 0.3 mg/mL, 1.2 mg/mL, and 4.8 mg/mL for oral administration. There were four rounds of drug administration. One week was required between the rounds of testing according to the conditions for of animal welfare maintenance. For IV injection, a drug solution with a concentration of 0.3 mg/mL was prepared and filtered through a 0.22-μm filter. Blood samples were collected via the jugular vein using the same procedures as were used for the rat experiments. Following centrifugation, the plasma was transferred to clean tubes and stored at −80 °C until further analysis. All animals were euthanized by phenobarbital injection after the final blood sample collection. Pharmacokinetic assessments were conducted as described in 2.2.1.

[3] = female, iv, 0.6 mg/kg, female rats, intravenous X842, plasma analyte as labelled
[4] = female, po, 0.6 mg/kg, female rats, single oral X842 0.6 mg/kg, analyte as labelled
[5] = female, po, 2.4 mg/kg, female rats, single oral X842 2.4 mg/kg, analyte as labelled
[6] = female, po, 9.6 mg/kg, female rats, single oral X842 9.6 mg/kg, analyte as labelled
[7] = male, iv, 0.6 mg/kg, male rats, intravenous X842, plasma analyte as labelled
[8] = male, po, 0.6 mg/kg, male rats, single oral X842 0.6 mg/kg, analyte as labelled
[9] = male, po, 2.4 mg/kg, male rats, single oral X842 2.4 mg/kg, analyte as labelled
[10] = male, po, 9.6 mg/kg, male rats, single oral X842 9.6 mg/kg, analyte as labelled
[11] = 1.2 mg/kg, female dogs, repeat oral X842, Day 1
[12] = 1.2 mg/kg, female dogs, repeat oral X842, Day 7
[13] = female dogs, intravenous X842 0.3 mg/kg
[14] = female dogs, single oral X842 0.3 mg/kg
[15] = female dogs, single oral X842 1.2 mg/kg
[16] = female dogs, single oral X842 4.8 mg/kg
[17] = male dogs, intravenous X842 0.3 mg/kg
[18] = male dogs, single oral X842 0.3 mg/kg
[19] = male dogs, single oral X842 1.2 mg/kg
[20] = male dogs, single oral X842 4.8 mg/kg

- Cmax [1, 3]: 80.5 ± 17.7 ng/mL
- AUC(0-t) [1, 3]: 133 ± 11.1 ng·h/mL
- half-life [1, 3]: 2 ± 0.4 h
- Cmax [1, 4]: 13.5 ± 5.8 ng/mL
- AUC(0-t) [1, 4]: 67.6 ± 23.7 ng·h/mL
- half-life [1, 4]: 3.7 ± 1.6 h
- Cmax [1, 5]: 72.5 ± 5.6 ng/mL
- AUC(0-t) [1, 5]: 382 ± 44.9 ng·h/mL
- half-life [1, 5]: 2.7 ± 0.4 h
- Cmax [1, 6]: 336 ± 69.4 ng/mL
- AUC(0-t) [1, 6]: 3020 ng·h/mL
- half-life [1, 6]: 2.6 ± 0.1 h
- Cmax [1, 7]: 114 ± 17 ng/mL
- half-life ([1]; male, iv, 0.6 mg/kg, male rats, intravenous X842, plasma analyte as labelled (prodrug X842 / parent linaprazan)): 1.4 ± 0.1 h
- AUC(0-t) [1, 7]: 114 ± 7.1 ng·h/mL
- Cmax [1, 8]: 6.2 ± 1.7 ng/mL
- AUC(0-t) [1, 8]: 22.1 ± 9.9 ng·h/mL
- half-life [1, 8]: 2.2 ± 1 h
- Cmax [1, 9]: 32 ± 9.7 ng/mL
- AUC(0-t) [1, 9]: 134 ± 43.3 ng·h/mL
- half-life [1, 9]: 2.6 ± 0.5 h
- Cmax [1, 10]: 128 ± 17.5 ng/mL
- AUC(0-t) [1, 10]: 576 ± 46.1 ng·h/mL
- half-life [1, 10]: 3.1 ± 0.3 h
- Cmax at 1 day [2, 11]: 67.2 ± 4.7 ng/mL
- half-life at 1 day [2, 11]: 3.2 ± 0.42 h
- Cmax at 7 day [2, 12]: 65 ± 4.7 ng/mL
- half-life at 7 day [2, 12]: 5.1 ± 1.1 h
- half-life at 1 day ([2]; 1.2 mg/kg, male dogs, 7 days of repeat oral X842, Day 1): 2.8 ± 0.2 h
- half-life at 7 day ([2]; 1.2 mg/kg, male dogs, 7 days of repeat oral X842, Day 7): 3.8 ± 0.4 h
- Cmax at 1 day ([2]; 1.2 mg/kg, male dogs, repeat oral X842, Day 1): 82.8 ± 56.5 ng/mL
- Cmax at 7 day ([2]; 1.2 mg/kg, male dogs, repeat oral X842, Day 7): 67.5 ± 23.9 ng/mL
- Cmax [2, 13]: 30.6 ± 6.2 ng/mL
- half-life [2, 13]: 1.6 ± 0.2 h
- Cmax [2, 14]: 10.4 ± 1.4 ng/mL
- half-life [2, 14]: 2.1 ± 0.4 h
- Cmax [2, 15]: 67.2 ± 4.7 ng/mL
- half-life [2, 15]: 3.2 ± 0.42 h
- Cmax [2, 16]: 535 ± 149 ng/mL
- half-life [2, 16]: 2.2 ± 0.9 h
- Cmax [2, 17]: 45.5 ± 21.4 ng/mL
- half-life [2, 17]: 1.5 ± 0.25 h
- Cmax [2, 18]: 15.8 ng/mL
- half-life [2, 18]: 2.2 ± 0.7 h
- Cmax [2, 19]: 82.8 ± 56.5 ng/mL
- half-life [2, 19]: 2.8 ± 0.2 h
- Cmax [2, 20]: 851 ± 116 ng/mL
- half-life [2, 20]: 2.6 ± 0.2 h
- AUC(0-t) ([2]; female, iv, 0.3 mg/kg, female dogs, intravenous X842 0.3 mg/kg, read-out: AUC(0-24h)): 106 ± 13.9 ng·h/mL
- AUC(0-t) ([2]; female, po, 0.3 mg/kg, female dogs, single oral X842 0.3 mg/kg, read-out: AUC(0-24h)): 48.7 ± 7.4 ng·h/mL
- AUC(0-t) ([2]; female, po, 1.2 mg/kg, female dogs, repeat oral X842, Day 1, read-out: AUC(0-24h) Day 1): 412 ± 166 ng·h/mL
- AUC(0-t) ([2]; female, po, 1.2 mg/kg, female dogs, repeat oral X842, Day 7, read-out: AUC(0-24h) Day 7): 508 ± 41.8 ng·h/mL
- AUC(0-t) ([2]; female, po, 1.2 mg/kg, female dogs, single oral X842 1.2 mg/kg, read-out: AUC(0-24h)): 412 ng·h/mL
- AUC(0-t) ([2]; female, po, 4.8 mg/kg, female dogs, single oral X842 4.8 mg/kg, read-out: AUC(0-24h)): 2920 ng·h/mL
- AUC(0-t) ([2]; male, iv, 0.3 mg/kg, male dogs, intravenous X842 0.3 mg/kg, read-out: AUC(0-24h)): 170 ± 26.2 ng·h/mL
- AUC(0-t) ([2]; male, po, 0.3 mg/kg, male dogs, single oral X842 0.3 mg/kg, read-out: AUC(0-24h)): 77.8 ± 66.8 ng·h/mL
- AUC(0-t) ([2]; male, po, 1.2 mg/kg, male dogs, repeat oral X842, Day 1, read-out: AUC(0-24h) Day 1): 436 ± 272 ng·h/mL
- AUC(0-t) ([2]; male, po, 1.2 mg/kg, male dogs, repeat oral X842, Day 7, read-out: AUC(0-24h) Day 7): 439 ± 81.6 ng·h/mL
- AUC(0-t) ([2]; male, po, 1.2 mg/kg, male dogs, single oral X842 1.2 mg/kg, read-out: AUC(0-24h)): 436 ng·h/mL
- AUC(0-t) ([2]; male, po, 4.8 mg/kg, male dogs, single oral X842 4.8 mg/kg, read-out: AUC(0-24h)): 4850 ng·h/mL
Compound: Cc1cccc(C)c1CNc1cc(C(=O)NCCO)cn2c(C)c(C)nc12 [linaprazan]
